Laboratory results taken from patent publication US10208009B2, “Hydroxyl pyranone compound, method for producing same, and cosmetics composition comprising compound” (AMOREPACIFIC CORPORATION, priority 2015, dated 2019).

System: human adipose tissue derived mesenchymal stem cells (hAT-MSCs)
Assay: Adipocyte differentiation promoting effect: adiponectin expression (ELISA) in differentiating mesenchymal stem cells
Assay type: cell-based
Design: Adiponectin (pg/ml, Avg ± S.D.): unit of the concentration uncertain
Settings: for Adiponectin (pg/ml, Avg ± S.D.): medium collected on 14th day, ELISA; for expression level of adiponectin (in words): IDX differentiation medium + material, 14th day, summary of Table 1
Description: In order to examine the adipocyte differentiation promoting effect of the compounds prepared in the Example, the following test was carried out.
Adiponectin is a typical protein hormone secreted from adipocytes. It has been reported that as adipocytes are differentiated, the expression of adiponectin is increased. Therefore, the adipocyte differentiation promoting effect was confirmed by measuring the amount of adiponectin expressed in the cell culture medium when treated with the novel compound of the present invention, which is an indicator of adipocyte differentiation promoting.
The adipocyte differentiation was performed by culturing human adipose tissue derived mesenchymal stem cells (hAT-MSCs) from Lonza Inc. (Walkersville, Md., USA) according to Lonza's guidelines. The adipocyte differentiation was carried out using the method recommended by Lonza Inc., except that the adipocyte differentiation of adipose-derived mesenchymal stem cells is induced by using troglitazone (TRO) instead of indomethacin. Specifically, the mesenchymal stem cells were differentiated into adipocytes by adding the medium for adipocyte differentiation (hereinafter referred to as IDX), which was prepared by mixing […] of insulin, […] of Dexamethasone (DEXA), 0.5 mM of isobutylmethylxanthine (IBMX) and […] of TRO, to the culture medium of mesenchymal stem cells, and then culturing it.
In order to determine the expression level of adiponectin, after the medium for adipocyte differentiation was collected on the 14th day of differentiation, the amount of adiponectin was quantified using the Adiponectin ELISA Kit (R & D systems, Cat. No. DY1065) (each data value was corrected by the control group). The specific measurement method using Adiponectin ELISA Kit was as follows.
First, the capture antibody was reacted in a 96-well plate, washed with washing buffer solution, and then the material shown in Table 1 below was added and reacted at room temperature for 2 hours. Thereafter, while washing three times every time when going through each step, the detection antibody, the HRP enzyme, the substrate solution, and the stop solution were added in order and reacted for the time indicated in the protocol. After the final reaction, the absorbance was measured at a wavelength of 450 nm using a spectrophotometer.

[1] = IDX differentiation medium + material at 60 (unit uncertain)

Row | Structure (SMILES) | Adiponectin (pg/ml, Avg ± S.D.) (IDX differentiation medium + material (concentration not given)) [pg/mL] | Adiponectin (pg/ml, Avg ± S.D.) (IDX differentiation medium + material at 400 (unit uncertain)) [pg/mL] | expression level of adiponectin (in words) | Adiponectin (pg/ml, Avg ± S.D.) [1] [pg/mL]
1 | COc1ccc(Cl)cc1C(=O)NCCc1ccc(S(=O)(=O)NC(=O)NC2CCCCC2)cc1 [Glibenclamide] | 1920 ± 100 | – | – | –
2 | O=c1cc(CO)occ1O [Kojic acid] | – | 303 ± 98 | not increased | –
3 | O=C(/C=C/c1ccc2c(c1)OCO2)OCc1cc(=O)c(O)co1 [Seletinoid G] | – | – | – | 1505 ± 109
4 | CC1=CCCC(C)(C)C1/C=C/C(=O)OCc1cc(=O)c(O)co1 (stereo not drawn) [compound of example (Formula 1), 3-(2,6,6-trimethyl-cyclohex-2-enyl)-propenoic acid 5-hydroxy-4-oxo-4H-pyran-2-ylmethyl ester] | – | – | increases almost similarly to that with Glibenclamide | 1730 ± 120
